Source: US9493446B2, “Orexin receptor antagonists which are [ortho bi-(hetero-)aryl]-[2-(meta bi-(hetero-)aryl)-pyrrolidin-1-yl]-methanone derivatives” (Actelion Pharmaceuticals Ltd, priority 2012, dated 2016)
Read-outs that look alike come from different tables or passages of the source.

Assays:
orexin-1 = orexin-1 (Homo sapiens (Human), UniProt O43613); assay: Intracellular calcium measurement (FLIPR), CHO cells expressing human orexin-1 receptor, 3 nM orexin-A; format: cell-based; conditions: CHO cells expressing human orexin-1 receptor, FLIPR, 3 nM orexin-A; geometric mean if determined several times; read-out: IC50 OX1
Chain of orexin-1 (O43613 whole entry): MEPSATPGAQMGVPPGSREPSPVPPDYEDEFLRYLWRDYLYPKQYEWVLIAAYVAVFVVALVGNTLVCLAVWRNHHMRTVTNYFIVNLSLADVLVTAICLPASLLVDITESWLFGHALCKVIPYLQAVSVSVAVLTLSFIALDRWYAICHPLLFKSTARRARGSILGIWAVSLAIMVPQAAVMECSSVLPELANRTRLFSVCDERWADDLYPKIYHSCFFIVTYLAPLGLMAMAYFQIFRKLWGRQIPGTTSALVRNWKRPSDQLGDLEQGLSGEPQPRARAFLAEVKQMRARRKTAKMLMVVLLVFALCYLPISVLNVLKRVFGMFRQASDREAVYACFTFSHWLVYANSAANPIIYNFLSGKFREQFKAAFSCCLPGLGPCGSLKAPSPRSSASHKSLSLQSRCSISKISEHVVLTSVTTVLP
Method in brief: (§1)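 CHO cells stably expressing each receptor were loaded with 3 μM fluo-4 AM plus 5 mM probenecid for 50 min at 37 °C, then equilibrated 30 min at rt.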

human orexin-2 receptor = human orexin-2 receptor (Homo sapiens (Human), UniProt O43614); assay: Intracellular calcium measurement (FLIPR), CHO cells expressing human orexin-2 receptor, 3 nM orexin-A; format: cell-based; conditions: read-out: IC50 OX2
Chain of human orexin-2 receptor (O43614 whole entry): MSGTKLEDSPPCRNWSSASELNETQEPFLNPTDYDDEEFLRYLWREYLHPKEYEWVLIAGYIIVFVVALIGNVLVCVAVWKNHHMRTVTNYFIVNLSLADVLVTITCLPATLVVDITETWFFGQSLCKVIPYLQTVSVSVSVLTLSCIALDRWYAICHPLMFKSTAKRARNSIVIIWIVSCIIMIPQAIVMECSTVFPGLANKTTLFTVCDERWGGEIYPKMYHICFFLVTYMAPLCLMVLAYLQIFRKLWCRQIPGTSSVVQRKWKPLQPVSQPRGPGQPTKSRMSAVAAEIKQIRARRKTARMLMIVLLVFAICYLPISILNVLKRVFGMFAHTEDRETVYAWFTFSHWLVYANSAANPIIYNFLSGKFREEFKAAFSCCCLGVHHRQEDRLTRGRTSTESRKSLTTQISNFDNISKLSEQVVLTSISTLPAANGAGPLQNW
Method in brief: as §1

[1] = CHO cells expressing human orexin-2 receptor, FLIPR, 3 nM orexin-A, geometric mean if determined several times

Structure (SMILES)	IC50 (orexin-1) [nM]	IC50 (human orexin-2 receptor; [1]) [nM]	IC50 (human orexin-2 receptor) [nM]
O=C(c1cc(C(F)(F)F)ccc1-n1nccn1)N1CCC[C@H]1c1nc(-c2ccccc2OC(F)(F)F)no1 [compound 148, (2-[1,2,3]Triazol-2-yl-5-trifluoromethyl-phenyl)-{(S)-2-[3-(2-trifluoromethoxy-phenyl)-[1,2,4]oxadiazol-5-yl]-pyrrolidin-1-yl}-methanone]	241	285	
COc1c(Cl)cccc1-c1nc([C@@H]2CCCN2C(=O)c2cc(Cl)ccc2-n2nccn2)no1 [compound 357]	81		17
CCOc1cnccc1-c1noc([C@@H]2CCCN2C(=O)c2cc(C)ccc2-n2nccn2)n1 [compound 55, {(S)-2-[3-(3-Ethoxy-pyridin-4-yl)-[1,2,4]oxadiazol-5-yl]-pyrrolidin-1-yl}-(5-methyl-2-[1,2,3]triazol-2-yl-phenyl)-methanone]	241	41	
O=C(c1cc(Cl)ccc1-n1nccn1)N1CCC[C@H]1c1nc(-c2ccccc2OC(F)(F)F)no1 [compound 143]	47		34
Cc1ccc(-n2nccn2)c(C(=O)N2CCC[C@@]2(C)c2nc(-c3ccccc3)no2)c1 [Example 540, [(S)-2-Methyl-2-(3-phenyl-[1,2,4]oxadiazol-5-yl)-pyrrolidin-1-yl]-(5-methyl-2-[1,2,3]triazol-2-yl-phenyl)-methanone]	211	581	
Cc1ccc(-c2ccccc2)c(C(=O)N2CCC[C@H]2c2nc(-c3ccccc3OC(F)(F)F)no2)c1 [compound 136, (4-Methyl-biphenyl-2-yl)-{(S)-2-[3-(2-trifluoromethoxy-phenyl)-[1,2,4]oxadiazol-5-yl]-pyrrolidin-1-yl}-methanone]	12	9	
Cc1cc(-n2nccn2)c(C(=O)N2CCC[C@@]2(C)c2nnc(-c3cccc(Cl)c3C)[nH]2)cc1Cl [compound 552]	9	7	
Cc1cc(C(=O)N2CCC[C@H]2c2nc(-c3cccc(Cl)c3C)no2)c(-n2cccn2)cc1C [compound 115]	78	6	
COc1cc(O)ccc1-c1noc([C@@H]2CCCN2C(=O)c2cc(C)ccc2-n2nccn2)n1 [compound 64, {(S)-2-[3-(4-Hydroxy-2-methoxy-phenyl)-[1,2,4]oxadiazol-5-yl]-pyrrolidin-1-yl}-(5-methyl-2-[1,2,3]triazol-2-yl-phenyl)-methanone]	198	52	
COc1cc(C(=O)N2CCC[C@H]2c2nc(-c3cccc(Cl)c3C)no2)c(-n2nccn2)cc1C [compound 103]	30	2	
Cc1ccc(-n2nccn2)c(C(=O)N2CCC[C@H]2c2nc(-c3c(C)cncc3C)no2)c1 [compound 37, {(S)-2-[3-(3,5-Dimethyl-pyridin-4-yl)-[1,2,4]oxadiazol-5-yl]-pyrrolidin-1-yl}-(5-methyl-2-[1,2,3]triazol-2-yl-phenyl)-methanone]	> 5640	1060	
Cc1ccc(-n2nccn2)c(C(=O)N2CCC[C@H]2c2nnc(-c3ccccc3)[nH]2)c1 [Example 463, (5-Methyl-2-[1,2,3]triazol-2-yl-phenyl)-[(S)-2-(5-phenyl-4H-[1,2,4]triazol-3-yl)-pyrrolidin-1-yl]-methanone]	704	209	

Now from value to compound, other results behind:

IC50 (orexin-1) [nM]	IC50 (human orexin-2 receptor; [1]) [nM]	Structure (SMILES)	IC50 (human orexin-2 receptor) [nM]
212	5	COc1cc(C(=O)N2CCC[C@H]2c2noc(-c3cccc(F)c3OC)n2)c(-n2nccn2)cc1F [compound 373, {(S)-2-[5-(3-Fluoro-2-methoxy-phenyl)-[1,2,4]oxadiazol-3-yl]-pyrrolidin-1-yl}-(4-fluoro-5-methoxy-2-[1,2,3]triazol-2-yl-phenyl)-methanone]	
164	2	Cc1ccc(C)c(-c2nc([C@@H]3CCCN3C(=O)c3cc(C)c(C)cc3-n3nccn3)no2)c1 [compound 402, {(S)-2-[5-(2,5-Dimethyl-phenyl)-[1,2,4]oxadiazol-3-yl]-pyrrolidin-1-yl}-(4,5-dimethyl-2-[1,2,3]triazol-2-yl-phenyl)-methanone]	
69	20	CCOc1ccccc1-c1noc([C@@H]2CCCN2C(=O)c2cccc(F)c2-c2ccn[nH]2)n1 [compound 254, {(S)-2-[3-(2-Ethoxy-phenyl)-[1,2,4]oxadiazol-5-yl]-pyrrolidin-1-yl}-[3-fluoro-2-(2H-pyrazol-3-yl)-phenyl]-methanone]	
169	46	CCOc1ncccc1-c1noc([C@@H]2CCCN2C(=O)c2nc(C)ccc2-n2nccn2)n1 [compound 213, {(S)-2-[3-(2-Ethoxy-pyridin-3-yl)-[1,2,4]oxadiazol-5-yl]-pyrrolidin-1-yl}-(6-methyl-3-[1,2,3]triazol-2-yl-pyridin-2-yl)-methanone]	
495	87	O=C(c1ccc(F)cc1-n1nccn1)N1CCC[C@H]1c1nc(-c2ccccc2OC(F)(F)F)no1 [compound 163, (4-Fluoro-2-[1,2,3]triazol-2-yl-phenyl)-{(S)-2-[3-(2-trifluoromethoxy-phenyl)-[1,2,4]oxadiazol-5-yl]-pyrrolidin-1-yl}-methanone]	
322	16	COc1cc(C(=O)N2CCC[C@H]2c2cc(-c3ccccc3)on2)c(-n2nccn2)cc1C [compound 432, (5-Methoxy-4-methyl-2-[1,2,3]triazol-2-yl-phenyl)-[(S)-2-(5-phenyl-isoxazol-3-yl)-pyrrolidin-1-yl]-methanone]	
109	80	COc1cc(C)cc(-c2nc([C@@H]3CCCN3C(=O)c3ccc(C)cc3-n3nccn3)no2)c1 [compound 412, {(S)-2-[5-(3-Methoxy-5-methyl-phenyl)-[1,2,4]oxadiazol-3-yl]-pyrrolidin-1-yl}-(4-methyl-2-[1,2,3]triazol-2-yl-phenyl)-methanone]	
57	50	CCOc1ncccc1-c1nnc([C@@H]2CCCN2C(=O)c2cc(C)ccc2-n2nccn2)[nH]1 [compound 496, {(S)-2-[5-(2-Ethoxy-pyridin-3-yl)-4H-[1,2,4]triazol-3-yl]-pyrrolidin-1-yl}-(5-methyl-2-[1,2,3]triazol-2-yl-phenyl)-methanone]	
36	4	Cc1cc(C(=O)N2CCC[C@H]2c2noc(-c3cccc(C)c3C)n2)c(-n2nccn2)cc1C [compound 400, {(S)-2-[5-(2,3-Dimethyl-phenyl)-[1,2,4]oxadiazol-3-yl]-pyrrolidin-1-yl}-(4,5-dimethyl-2-[1,2,3]triazol-2-yl-phenyl)-methanone]	
49	13	COc1cc(C(=O)N2CCC[C@H]2c2cc(-c3ccccc3OC(F)(F)F)on2)c(-n2nccn2)cc1C [compound 436, (5-Methoxy-4-methyl-2-[1,2,3]triazol-2-yl-phenyl)-{(S)-2-[5-(2-trifluoromethoxy-phenyl)-isoxazol-3-yl]-pyrrolidin-1-yl}-methanone]	
35	15	CCc1ccccc1-c1nc([C@@H]2CCCN2C(=O)c2cc(C)ccc2-n2nccn2)no1 [compound 389, {(S)-2-[5-(2-Ethyl-phenyl)-[1,2,4]oxadiazol-3-yl]-pyrrolidin-1-yl}-(5-methyl-2-[1,2,3]triazol-2-yl-phenyl)-methanone]	
